Some test systems named below: SF-295 CNS; NCI/ADR-RES ovarian; SK-OV-3 ovarian; RPMI-8226 leukemia; EKVX NSCLC; UACC-62 melanoma; SR leukemia; HS 578T breast; SNB-19 CNS; UACC-257 melanoma.
Assay in all cases: NCI-60 cell line screen, 48 h

“And” between values parts separate entries of the source, which are not always exact repeats. Equal entries are not always repeated.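 Cells were grown in 96-well plates and exposed to each compound for 48 hours at five concentrations; endpoints were interpolated linearly between bracketing concentrations, or set to the highest concentration if not reached. GI50 marks 50% less growth. TGI marks complete inhibition of growth.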 A value given as a limit tells only on which side of the number the result lay.

With `CC(C)(C)c1ccccc1N1C(=O)c2ccc3c4c(ccc(c24)C1=O)N(c1ccccc1C(C)(C)C)C3=O`, the TGI with SF-295 CNS, in the assay with NCI/ADR-RES ovarian, in the assay with SK-OV-3 ovarian, in the assay with RPMI-8226 leukemia, in the assay with EKVX NSCLC and in the assay with UACC-62 melanoma was greater than 100 µM each time. For the same molecule, the TGI in the assay on SR leukemia, in the assay with HS 578T breast, in the assay on SNB-19 CNS and with UACC-257 melanoma was greater than 100 µM each time.

In the case of `O=C(O)CN(CC(=O)O)C1CCCCC1N1CC(=O)OC(=O)C1` (stereo unspecified), the TGI in the assay on SF-295 CNS, in the assay with NCI/ADR-RES ovarian, in the assay with SK-OV-3 ovarian, with RPMI-8226 leukemia, in the assay with EKVX NSCLC and in the assay with UACC-62 melanoma was greater than 100 µM in each case. The TGI in the assay on SR leukemia, in the assay with HS 578T breast, in the assay with SNB-19 CNS and with UACC-257 melanoma was greater than 100 µM throughout.

For `S=C1c2ccc(Cl)cc2-n2cnnc2C2CSCN12` (stereo unspecified), the TGI in the assay on SF-295 CNS, with NCI/ADR-RES ovarian, in the assay with SK-OV-3 ovarian, in the assay on RPMI-8226 leukemia, with EKVX NSCLC and in the assay with UACC-62 melanoma was greater than 100 µM throughout. Also, the TGI in the assay with SR leukemia, with HS 578T breast, with SNB-19 CNS and in the assay with UACC-257 melanoma was greater than 100 µM throughout.

Take `O=[N+]([O-])c1ccccc1OCCOc1ccccc1[N+](=O)[O-]`: the TGI with SF-295 CNS, with NCI/ADR-RES ovarian, with SK-OV-3 ovarian, in the assay with RPMI-8226 leukemia, in the assay on EKVX NSCLC and in the assay with UACC-62 melanoma was greater than 100 µM throughout. The TGI in the assay on SR leukemia, with HS 578T breast, in the assay with SNB-19 CNS and with UACC-257 melanoma was greater than 100 µM each time.

Consider `NC(=O)CNC(=O)[C@@H]1CC(OCCC(=O)O)CN1C(=O)C1CCCN1C(=O)OCc1ccccc1` (stereo partly specified), for which the TGI in the assay on SF-295 CNS, in the assay on NCI/ADR-RES ovarian, with SK-OV-3 ovarian, with RPMI-8226 leukemia, in the assay on EKVX NSCLC and in the assay with UACC-62 melanoma was greater than 100 µM in each case. The TGI with SR leukemia, in the assay on HS 578T breast, with SNB-19 CNS and with UACC-257 melanoma was greater than 100 µM each time.

For the molecule `N#CN1C2CCC1CC(=O)C2`, the TGI with SF-295 CNS, in the assay with NCI/ADR-RES ovarian, in the assay with SK-OV-3 ovarian, in the assay on RPMI-8226 leukemia, in the assay with EKVX NSCLC and in the assay with UACC-62 melanoma was greater than 100 µM each time. The TGI in the assay with SR leukemia, with HS 578T breast, in the assay on SNB-19 CNS and with UACC-257 melanoma was greater than 100 µM in each case.

Turning to `N#CCCN(CCC#N)c1ccc(/C=C2\N=C(c3ccccc3)N(c3ccc(F)cc3)C2=O)cc1`, the TGI in the assay with SF-295 CNS, with NCI/ADR-RES ovarian, in the assay with SK-OV-3 ovarian, with RPMI-8226 leukemia, in the assay on EKVX NSCLC and with UACC-62 melanoma was greater than 100 µM each time. In addition, the TGI in the assay with SR leukemia, with HS 578T breast, in the assay with SNB-19 CNS and with UACC-257 melanoma was greater than 100 µM each time.

Turning to `CC(C)(C)c1ccc(OCCOc2ccc(C(C)(C)C)cc2N)c(N)c1`, the TGI in the assay on SF-295 CNS, in the assay with NCI/ADR-RES ovarian, in the assay on SK-OV-3 ovarian, with RPMI-8226 leukemia, in the assay with EKVX NSCLC and in the assay with UACC-62 melanoma was greater than 100 µM in each case. Also, the TGI with SR leukemia, in the assay on HS 578T breast, in the assay on SNB-19 CNS and with UACC-257 melanoma was greater than 100 µM throughout.

For the molecule `CC(=O)c1c(-c2cccc3ccccc23)c(C#N)c(=S)n(C2OC(CO)C(O)C(O)C2O)c1C` (stereo unspecified), the TGI with SF-295 CNS is greater than 100 µM; with NCI/ADR-RES ovarian, greater than 100 µM; in the assay on SK-OV-3 ovarian, greater than 100 µM; in the assay with RPMI-8226 leukemia, greater than 100 µM; with EKVX NSCLC it was 32.4 µM; with UACC-62 melanoma it was greater than 100 µM. In addition, the TGI in the assay with SR leukemia, in the assay on HS 578T breast, in the assay on SNB-19 CNS and in the assay with UACC-257 melanoma was greater than 100 µM throughout. For the same molecule, in the assay on SR leukemia, the GI50 is > 100 µM and 33.6 µM.

As for `C[C@H](c1ccccc1)N1C(=O)[C@@H](O)[C@H]1[C@H](CO)OCc1ccccc1`, the TGI in the assay with SF-295 CNS, in the assay with NCI/ADR-RES ovarian, with SK-OV-3 ovarian, in the assay with RPMI-8226 leukemia, with EKVX NSCLC and in the assay with UACC-62 melanoma was greater than 100 µM throughout. For the same molecule, the TGI in the assay with SR leukemia, in the assay with HS 578T breast, with SNB-19 CNS and in the assay on UACC-257 melanoma was greater than 100 µM in each case.

In the case of `CC(C)/C(Cl)=N/OC(=O)Nc1ccc(Br)cc1`, the TGI was 28.8 µM in the assay on SF-295 CNS; 27.8 µM with NCI/ADR-RES ovarian; 30.3 µM in the assay with SK-OV-3 ovarian; 5.24 µM in the assay on RPMI-8226 leukemia; 4.37 µM with EKVX NSCLC; 17 µM in the assay on UACC-62 melanoma. For the same molecule, the TGI in the assay with SR leukemia was 4.5 µM; with HS 578T breast it was 58.4 µM; in the assay with SNB-19 CNS, 44.1 µM; in the assay on UACC-257 melanoma, 28.7 µM.

In the case of `C=CCOC(=O)N1c2ccc(O[Si](C)(C)C(C)(C)C)cc2[C@@]23O[C@@]24[C@@H]1C#C/C=C\C#C[C@]3(O)C(OC)(OC)C[C@@H]4C`, the TGI with SF-295 CNS is greater than 100 µM; in the assay on NCI/ADR-RES ovarian it was greater than 100 µM; with SK-OV-3 ovarian, greater than 100 µM; with RPMI-8226 leukemia, greater than 100 µM; with EKVX NSCLC, greater than 100 µM; in the assay on UACC-62 melanoma it was greater than 42 µM. In addition, the TGI is greater than 100 µM in the assay on SR leukemia, greater than 89.1 µM in the assay on HS 578T breast, greater than 100 µM in the assay with SNB-19 CNS and greater than 100 µM in the assay on UACC-257 melanoma.

`C=CCSC1=N/C(=C\c2ccc(Cl)cc2)C(=O)N1CC=C`: the TGI in the assay on SF-295 CNS was greater than 100 µM; in the assay with NCI/ADR-RES ovarian, greater than 100 µM; in the assay on SK-OV-3 ovarian, greater than 100 µM; in the assay on RPMI-8226 leukemia, 52.9 µM; in the assay on EKVX NSCLC it was 57.3 µM; in the assay on UACC-62 melanoma it was greater than 100 µM. In addition, the TGI was 48.4 µM in the assay with SR leukemia, greater than 100 µM in the assay with HS 578T breast, greater than 100 µM in the assay with SNB-19 CNS and 76.7 µM in the assay on UACC-257 melanoma.

With `Cc1ccc2nc(SCC(=O)N=Nc3c(O)[nH]c4ccccc34)n(-c3ccccc3)c(=O)c2c1`, the TGI in the assay on SF-295 CNS stood at 29.5 µM; in the assay with NCI/ADR-RES ovarian, 26.1 µM; in the assay with SK-OV-3 ovarian it was 26.7 µM; in the assay with RPMI-8226 leukemia, 35.7 µM; with EKVX NSCLC, 29.2 µM; in the assay on UACC-62 melanoma, 30.6 µM. The TGI with SR leukemia came out at 36.7 µM; with HS 578T breast, 46.2 µM; with SNB-19 CNS, 40.6 µM; in the assay on UACC-257 melanoma it was 55.7 µM.

Regarding `CN(C)CCNc1ccc2c(=O)n(CCN(C)C)c(=O)n3c4ccc(O)cc4c(=O)c1c23`, the TGI in the assay on SF-295 CNS came to 0.148 µM; with NCI/ADR-RES ovarian, 9.39 µM; in the assay on SK-OV-3 ovarian it was 1.04 µM; in the assay with RPMI-8226 leukemia, 0.417 µM; with EKVX NSCLC it was 0.57 µM; in the assay on UACC-62 melanoma, 0.147 µM. For the same molecule, the TGI was less than 0.01 µM in the assay with SR leukemia, 0.961 µM in the assay on HS 578T breast, 0.729 µM in the assay with SNB-19 CNS and 0.795 µM with UACC-257 melanoma.
